Assay results: ChEMBL document CHEMBL3244418, “Synthesis and central nervous system activity of quinazolones related to 2-methyl-3-(o-tolyl)-4(3H)-quinazolone (methaqualone)” (J Med Chem, 1977)

Key:
[1] = test system: Mus musculus; test: Anticonvulsant activity in ip dosed CFLP mouse assessed as inhibition of pentylenetetrazole-induced seizure; format: functional
[2] = test system: Mus musculus; test: Hypnotic activity in ip dosed CFLP mouse after 30 mins by rotary drum test; format: functional; details: 0.5 h
[3] = test system: Mus musculus; test: Anticonvulsant activity in ip dosed CFLP mouse assessed as inhibition of maximum electroshock-induced seizure; format: functional
[4] = test system: Mus musculus; test: Hypnotic activity in ip dosed CFLP mouse assessed as loss of righting reflex; format: functional
[5] = test system: Mus musculus; test: […] activity in po dosed CFLP mouse assessed as inhibition of benzoquinone-induced writhing; format: functional
[6] = Chemical stability of the compound assessed as methaqualone/sulfur/disulfide formation; format: physicochemical

Br.N=C(N)SCc1nc2ccccc2c(=O)n1-c1ccccc1
ED50 [1]: > 50 mg/kg | ED50 [2]: 42 mg/kg | ED50 [3]: 53 mg/kg | ED50 [4]: 200 mg/kg

Br.N=C(N)SCc1nc2ccccc2c(=O)n1-c1ccccc1Cl
ED50 [5]: 90 mg/kg | ED50 [4]: 200 mg/kg

Cc1ccccc1-n1c(CBr)nc2ccccc2c1=O
ED50 [5]: > 150 mg/kg | ED50 [2]: > 200 mg/kg | ED50 [3]: > 200 mg/kg | ED50 [4]: > 200 mg/kg

Cc1ccccc1-n1c(CF)nc2ccccc2c1=O.Cl
ED50 [1]: 16 mg/kg | ED50 [2]: 18 mg/kg | ED50 [3]: 14.5 mg/kg | ED50 [4]: 75 mg/kg

Cc1ccccc1-n1c(CI)nc2ccccc2c1=O
ED50 [2]: > 200 mg/kg | ED50 [3]: > 200 mg/kg | ED50 [4]: > 400 mg/kg

Cc1ccccc1-n1c(C(F)F)nc2ccccc2c1=O
ED50 [1]: 50 mg/kg | ED50 [2]: 100 mg/kg | ED50 [3]: > 100 mg/kg | ED50 [4]: > 400 mg/kg

Cc1ccccc1-n1c(C(Br)Br)nc2ccccc2c1=O
ED50 [5]: > 400 mg/kg | ED50 [1]: > 200 mg/kg | ED50 [2]: > 200 mg/kg | ED50 [3]: > 200 mg/kg | ED50 [4]: > 800 mg/kg

Cc1ccccc1-n1c(C(F)(F)F)nc2ccccc2c1=O
ED50 [5]: > 200 mg/kg | ED50 [1]: > 200 mg/kg | ED50 [2]: > 200 mg/kg | ED50 [3]: > 200 mg/kg | ED50 [4]: > 400 mg/kg

COCc1nc2ccccc2c(=O)n1-c1ccccc1C
ED50 [5]: 100 mg/kg | ED50 [1]: 100 mg/kg | ED50 [2]: 22 mg/kg | ED50 [3]: 26 mg/kg | ED50 [4]: 300 mg/kg

CCOCc1nc2ccccc2c(=O)n1-c1ccccc1C
ED50 [5]: > 200 mg/kg | ED50 [2]: 27 mg/kg | ED50 [3]: 64 mg/kg | ED50 [4]: 300 mg/kg

CCCOCc1nc2ccccc2c(=O)n1-c1ccccc1C
ED50 [5]: > 200 mg/kg | ED50 [1]: 150 mg/kg | ED50 [3]: > 200 mg/kg | ED50 [4]: > 400 mg/kg

CCCCOCc1nc2ccccc2c(=O)n1-c1ccccc1C
ED50 [5]: > 200 mg/kg | ED50 [2]: 88 mg/kg | ED50 [3]: 120 mg/kg | ED50 [4]: > 400 mg/kg

Cc1ccccc1-n1c(CO)nc2ccccc2c1=O
ED50 [5]: > 200 mg/kg | ED50 [1]: 70 mg/kg | ED50 [2]: 56 mg/kg | ED50 [3]: 135 mg/kg | ED50 [4]: > 400 mg/kg

CC(=O)OCc1nc2ccccc2c(=O)n1-c1ccccc1C
ED50 [5]: 200 mg/kg | ED50 [1]: 150 mg/kg | ED50 [2]: 155 mg/kg | ED50 [3]: 120 mg/kg | ED50 [4]: > 400 mg/kg

Cc1ccccc1-n1c(COC(=O)CCC(=O)O)nc2ccccc2c1=O
ED50 [5]: > 200 mg/kg | ED50 [1]: 150 mg/kg | ED50 [2]: > 200 mg/kg | ED50 [3]: > 200 mg/kg | ED50 [4]: > 400 mg/kg

CCCSCc1nc2ccccc2c(=O)n1-c1ccccc1C
ED50 [5]: > 200 mg/kg | ED50 [1]: 70 mg/kg | ED50 [2]: 100 mg/kg | ED50 [3]: 160 mg/kg | ED50 [4]: > 800 mg/kg

Cc1ccccc1-n1c(CSC(N)=O)nc2ccccc2c1=O
ED50 [5]: > 200 mg/kg | ED50 [1]: 56 mg/kg | ED50 [2]: 200 mg/kg | ED50 [3]: 120 mg/kg | ED50 [4]: 400 mg/kg

Cc1ccccc1-n1c(CSC(N)=O)nc2ccccc2c1=O.Cl
ED50 [5]: 200 mg/kg | ED50 [2]: 19 mg/kg | ED50 [3]: 34 mg/kg | ED50 [4]: 35 mg/kg

Cc1ccccc1-n1c(CSS(=O)(=O)O)nc2ccccc2c1=O
ED50 [5]: > 200 mg/kg | ED50 [1]: 39 mg/kg | ED50 [2]: 44 mg/kg | ED50 [3]: 82 mg/kg | ED50 [4]: 150 mg/kg

Br.Cc1ccccc1-n1c(CSC(=N)N)nc2ccccc2c1=O
ED50 [5]: > 50 mg/kg | ED50 [1]: 28 mg/kg | ED50 [2]: 35 mg/kg | ED50 [3]: 65 mg/kg | ED50 [4]: 56 mg/kg

Br.C/N=C(\NC)SCc1nc2ccccc2c(=O)n1-c1ccccc1C
ED50 [5]: 51 mg/kg | ED50 [1]: 23 mg/kg | ED50 [2]: 32 mg/kg | ED50 [3]: 25 mg/kg | ED50 [4]: 100 mg/kg

Br.CCCC/N=C(\NCCCC)SCc1nc2ccccc2c(=O)n1-c1ccccc1C
ED50 [5]: 200 mg/kg | ED50 [1]: > 40 mg/kg | ED50 [2]: 40 mg/kg | ED50 [3]: > 40 mg/kg | ED50 [4]: > 100 mg/kg

Br.Cc1ccc([N+](=O)[O-])cc1-n1c(CSC(=N)N)nc2ccccc2c1=O
ED50 [5]: > 200 mg/kg | ED50 [4]: > 400 mg/kg

Br.Cc1ccccc1-n1c(CS/C(N)=N/N)nc2ccccc2c1=O
ED50 [1]: 23 mg/kg | ED50 [2]: 15.5 mg/kg | ED50 [3]: 35 mg/kg | ED50 [4]: 100 mg/kg

Br.Cc1ccccc1-n1c(CSC2=NCCCN2)nc2ccccc2c1=O
ED50 [5]: 170 mg/kg | ED50 [2]: 39 mg/kg | ED50 [3]: 50 mg/kg | ED50 [4]: 200 mg/kg

Br.C/N=C(/NC)SCc1nc2ccccc2c(=O)n1-c1ccccc1Cl
ED50 [5]: 200 mg/kg | ED50 [1]: 40 mg/kg | ED50 [2]: 27 mg/kg | ED50 [3]: 30 mg/kg | ED50 [4]: 150 mg/kg

Br.C/N=C(\NC)SCc1nc2ccccc2c(=O)n1-c1ccccc1
ED50 [5]: 200 mg/kg | ED50 [1]: 50 mg/kg | ED50 [2]: > 50 mg/kg | ED50 [3]: 40 mg/kg | ED50 [4]: > 400 mg/kg

Br.N=C(N)SCc1nc2ccccc2c(=O)n1-c1ccccc1F
ED50 [5]: 100 mg/kg | ED50 [1]: 75 mg/kg | ED50 [2]: 43 mg/kg | ED50 [3]: 38 mg/kg | ED50 [4]: 400 mg/kg

Br.C/N=C(\NC)SCc1nc2ccccc2c(=O)n1-c1ccccc1F
ED50 [5]: > 50 mg/kg | ED50 [1]: > 50 mg/kg | ED50 [2]: 54 mg/kg | ED50 [3]: 45 mg/kg | ED50 [4]: > 400 mg/kg

Br.C/N=C(\NC)SCc1nc2ccccc2c(=O)n1-c1cc([N+](=O)[O-])ccc1C
ED50 [5]: > 10 mg/kg | ED50 [1]: > 10 mg/kg | ED50 [2]: > 10 mg/kg | ED50 [3]: > 10 mg/kg | ED50 [4]: > 50 mg/kg

Br.Cc1c(Cl)cccc1-n1c(CSC(=N)N)nc2ccccc2c1=O
ED50 [5]: 200 mg/kg | ED50 [2]: 57 mg/kg | ED50 [3]: 42 mg/kg | ED50 [4]: 400 mg/kg

Br.Cc1ccccc1-n1c(CSC2=NCCN2)nc2ccccc2c1=O
ED50 [5]: > 50 mg/kg | ED50 [1]: 24 mg/kg | ED50 [2]: 42 mg/kg | ED50 [3]: 44 mg/kg | ED50 [4]: 60 mg/kg

Br.O=c1c2ccccc2nc(CSC2=NCCN2)n1-c1ccccc1Cl
ED50 [1]: 25 mg/kg | ED50 [2]: 12 mg/kg | ED50 [3]: 18 mg/kg | ED50 [4]: 50 mg/kg

Br.O=c1c2ccccc2nc(CSC2=NCCN2)n1-c1ccccc1F
ED50 [5]: 90 mg/kg | ED50 [1]: 100 mg/kg | ED50 [2]: 32 mg/kg | ED50 [3]: 37.5 mg/kg | ED50 [4]: 200 mg/kg

Br.O=c1c2ccccc2nc(CSC2=NCCN2)n1-c1ccccc1
ED50 [5]: 50 mg/kg | ED50 [1]: > 50 mg/kg | ED50 [2]: > 50 mg/kg | ED50 [3]: 50 mg/kg | ED50 [4]: 200 mg/kg

Br.Cc1ccc([N+](=O)[O-])cc1-n1c(CSC2=NCCN2)nc2ccccc2c1=O
ED50 [5]: > 200 mg/kg | ED50 [1]: 150 mg/kg | ED50 [2]: 86 mg/kg | ED50 [3]: 100 mg/kg | ED50 [4]: > 400 mg/kg

Br.O=c1c2ccccc2nc(CSC2=NCCN2)n1-c1ccc(Cl)cc1
ED50 [5]: > 75 mg/kg | ED50 [1]: 37.5 mg/kg | ED50 [2]: 47 mg/kg | ED50 [3]: 35 mg/kg | ED50 [4]: > 200 mg/kg

Br.Cc1c(Cl)cccc1-n1c(CSC2=NCCN2)nc2ccccc2c1=O
ED50 [1]: 25 mg/kg | ED50 [2]: > 25 mg/kg | ED50 [3]: > 25 mg/kg | ED50 [4]: 80 mg/kg

COc1ccccc1-n1c(CS)nc2ccccc2c1=O
Stability [6]: Unstable

Cc1ccccc1-n1c(C)nc2ccccc2c1=O [METHAQUALONE]
ED50 [5]: 36 mg/kg | ED50 [1]: 14 mg/kg | ED50 [2]: 30 mg/kg | ED50 [3]: 48 mg/kg | ED50 [4]: 96 mg/kg
